{"source": "patent US11913884B2", "about": "“Visible light-activated dyes and methods of use thereof” (William Marsh Rice University, priority 2019, dated 2024)", "key": {"[1]": {"assay": "Fluorescence quantum yield determination", "assay_type": "physicochemical", "conditions": "DMSO; reference rhodamine B in ethanol or quinine sulfate in 0.5 M H2SO4", "experimental": "The ^1H NMR spectroscopic measurements were carried out using a Bruker-600 NMR at 600 MHz with tetramethysilane (TMS) as internal reference. Electrospray ionization (ESI) mass spectra were performed on a Bruker MicroToF ESI LC-MS System in positive-ion mode. The steady-state absorption spectra were obtained with a ThermoFisher Evolution 220 UV-Vis spectrophotometer in 1 cm path length quartz cells. Fluorescence spectra were recorded using spectrophotometer (SPEX FluoroLog-3). Quantum yield in DMSO was measured relative to the fluorescence of Rhodamine B (Φ=0.65) in ethanol or quinine sulfate (Φ=0.55) in 0.5 M·L^−1 H2SO4. FT-IR spectrum was taken on a PerkinElmer Spectrum 100 FT-IR Spectrometers. Confocal fluorescent images of living cells were performed using Nikon A1R-si Laser Scanning Confocal Microscope (Japan), equipped with lasers of 405/488/561/638 nm. STORM images were performed on a NSTORM (Nikon, Japan), featuring a CFI Apo TIRF 100× oil objective (NA 1.49) on an inverted Nikon Ti Eclipse microscope with a quad cube filter (Chroma, zt405/488/561/640 m-TRF), piezo stage, and Perfect Focus System (Nikon) for Z-stability. Light source are hand-held UV lamp, BlueView Transilluminator (470 nm centred, Vernier), Prior Lumen200 with 615/30 filter and 850 LED (Mouser Electronics).\nQuantum yields were measured with Rhodamine B as reference (Φ=0.65) or quinine sulfate (Φ=0.55) in 0.5 M H2SO4. Fluorescence measurements were performed in 1 cm quartz cells with 5 μM samples in DMSO on spectrophotometer (SPEX FluoroLog-3) (slits 5×5). The fluorescence quantum yield, Φ (sample), were calculated according to equation as following:\n[formula] Φ: quantum yield; I: integrated emission intensity; OD: optical density at the excitation wavelength; d: refractive index of solvents, dDMSO=1.478; dethanol=1.36; dwater=1.33."}, "[2]": {"test_system": "adipocytes differentiated from 3T3-L1 cells", "assay": "Co-localization assay by confocal laser scanning microscopy", "assay_type": "cell-based", "conditions": "2 μM, 10 mins, after 488-nm laser for 30 s", "experimental": "Before testing the utility of thio-caged fluorophores for investigating biological systems, the cytotoxicity of SNile Red in adipocytes was evaluated using Cell Counting Kit-8. At a concentration of 4 μM SNile Red, 90% of 3T3-L1 cells remained viable even after 24 hours (FIG. 10). Thio-caged dyes were then used to obtain subcellular structural data via fluorescence imaging of adipocytes. Nile Red and BODIPY are the fluorescent dyes most commonly used for lipid imaging (Corsaro and Pistara, 1998, Spiller et al., 1998, Tang et al., 2013). Confocal laser scanning microscopy (CLSM) was used to determine the specificity of SNile Red localization in adipocytes differentiated from 3T3-L1 cells. For colocalization studies, adipocytes were stained with 2 μM SNile Red and 100 nM BODIPY 493/503 for 10 mins.\n3T3-L1 cells were differentiated to adipocytes according to the protocol from ATCC (Chemically-induced differentiation of at CC® CL-173TM (3T3-L1) using single-Component Commercially-available reagents). […]\nAfter incubation of 2 μM SNile Red for 10 min, cells were washed with PBS (pH 7.4) twice and turned to confocal laser scanning microscope (CLSM). […] Differential interference contrast (DIC) and fluorescent images were processed and analyzed using ImageJ. The Pearson's Coefficient was calculated by ImageJ."}, "[3]": {"test_system": "differentiated 3T3-L1 adipocytes", "assay": "Photoactivation and photobleaching in living adipocytes (CLSM)", "assay_type": "cell-based", "text": "Super-resolution imaging based on sequential imaging of a specific region of labeled tissue or cell culture relies on the ability to modulate the fluorescence of fluorophores between dark and bright states (Bates et al., 2007, Sengupta et al., 2014). […] Furthermore, the photoactivation of SNile Red can be achieved using visible light, affording lower phototoxicity and better tissue penetration than use of UV light. […] A 488 nm laser was utilized to activate SNile Red, while a 561 nm laser was used for photobleaching. […] Following irradiation with the 488-nm laser for 80 s, a five-fold increase of fluorescence intensity was detected. Subsequently, photobleaching was performed in the same cells using the 561-nm laser. As shown in FIGS. 13B & 13D, the fluorescence intensity decayed to 10% of its maximum within 360 s continuous scanning. This photoswitching flexibility holds promise for SNile Red utilization in further photoactivatable localization microscopy (PALM) studies. Next, the utility of SNile Red for performing super-resolution imaging of lipid droplets was explored. […] Compared to the conventional widefield fluorescence image (FIG. 13B) and Differential interference contrast (DIC) image (FIGS. 13A-B), the PALM reconstruction outlines a pair of lipid droplets with a resolution beyond the optical diffraction limit (FIGS. 13B &13C). […]"}}, "data": [{"compound": "CCN(CC)c1ccc2nc3c4ccccc4c(=S)cc-3oc2c1", "note": "[SNile Red]", "values": [{"measurement": "ø (fluorescence quantum yield)", "setting": "[1]", "result": "<0.001"}, {"measurement": "colocalization with BODIPY 493/503 labeling", "setting": "[2]", "result": "more than 90%"}, {"measurement": "fluorescence intensity after photobleaching, of its maximum", "setting": "[3]; 561-nm laser, within 360 s continuous scanning", "result": 10, "unit": "%"}, {"measurement": "increase of fluorescence intensity in cells", "setting": "[3]; irradiation with 488-nm laser for 80 s", "result": "five-fold"}]}]}
